Test system: HaCaT cells
Assay: Concentrations of inflammatory mediators produced by HaCaT cells stimulated with TNFα and IFNγ in presence/absence of JAK inhibitors (ProCarta)
Assay type: cell-based, human
Procedure: After 48 hours, cell culture media was removed from 24 well plates and replaced with 250 uL of media containing serial diluted drug, then incubated for 15 minutes at 37° C./5% CO2. […] The final concentration of Recombinant Human Interferon gamma and Recombinant Human Tumor Necrosis Factor alpha was 25 ng/mL of each cytokine. Cytokine stimulation added to wells containing drug brought the final concentrations for each drug treatment to 25 nM, 50 nM, 100 nM, and 200 nM. Treated plates were mixed by gentle agitation for 30 seconds then incubated for 24 hours at 37° C./5% CO2. At the end of the 24 hour incubation media was immediately removed from each plate.
Media was incubated with antibody conjugated beads designed to bind to the epitopes of specific target proteins and identify the bound protein through the bead's distinctive spectral pattern. Biotinylated detection antibodies, designed to bind to different epitopes of the same target proteins, and Streptavidin-PE are added to assay plates to quantify the amount of the target proteins. Assay plates were read on the Luminex 200 and data were expressed as Net Median Fluorescence Intensity. […] The concentration of each protein was extrapolated from the antigen standard curve and concentrations were expressed as pg/mL (Table 15).

[1] = TNFα 25 ng/mL + IFNγ 25 ng/mL, drug 100 nM
[2] = TNFα 25 ng/mL + IFNγ 25 ng/mL, drug 200 nM

Question: Which results are given for `N#CCC1(n2cc(-c3ncnc4[nH]ccc34)cn2)CN(C2CCN(C(=O)c3ccnc(C(F)(F)F)c3F)CC2)C1` [Cpc B]?
Answer: IL15 concentration [1]: 2.58 ± 0.68 pg/mL; IL17A concentration [1]: 4.84 ± 0.34 pg/mL; IL18 concentration [1]: 156.06 ± 3.24 pg/mL; IL21 concentration [1]: 2.36 ± 0.35 pg/mL; IL22 concentration [1]: 8.03 ± 0.87 pg/mL; IL23 concentration [1]: 6.44 ± 0.69 pg/mL; IL27 concentration [1]: 5.36 ± 0.73 pg/mL; IL31 concentration [1]: 3.35 ± 0.44 pg/mL; IP-10/CXCL10 concentration [1]: 4050.7 ± 471.31 pg/mL; LIF concentration [1]: 70.3 ± 3.65 pg/mL; MCP1 concentration [1]: 15200 ± 0 pg/mL; MIP1 alpha concentration [1]: 91.52 ± 5.05 pg/mL; MIP1 beta concentration [1]: 323.13 ± 6.82 pg/mL; PDGF-BB concentration [1]: 5.4 ± 0.16 pg/mL; PIGF-1 concentration [1]: 54.67 ± 3.27 pg/mL; RANTES concentration [1]: 194.21 ± 12.67 pg/mL; SCF concentration [1]: 4.26 ± 0.17 pg/mL; SDF-1 alpha concentration [1]: 3471.01 ± 111.77 pg/mL; TNF alpha concentration [1]: 11722.68 ± 1259.67 pg/mL; TNF beta concentration [1]: 4 ± 0.51 pg/mL; VEGF-A concentration [1]: 1262.01 ± 46.28 pg/mL; VEGF-D concentration [1]: 8.71 ± 0.65 pg/mL; bNGF concentration [1]: 7.04 ± 0.59 pg/mL; BDNF concentration [2]: 4.1 ± 0.24 pg/mL; EGF concentration [2]: 1.52 ± 0.1 pg/mL; Eotaxin concentration [2]: 10.05 ± 0.19 pg/mL; FGF-2 concentration [2]: 21.39 ± 1.61 pg/mL; GM-CSF concentration [2]: 134.13 ± 3.74 pg/mL; GRO alpha concentration [2]: 563.61 ± 42.17 pg/mL; HGF concentration [2]: 13.5 ± 0.57 pg/mL; IFN alpha concentration [2]: 0.26 ± 0 pg/mL; IFN gamma concentration [2]: 25272.53 ± 3796.83 pg/mL; IL1RA concentration [2]: 5710.44 ± 269.38 pg/mL; IL1 alpha concentration [2]: 6.16 ± 0.35 pg/mL; IL1 beta concentration [2]: 8.43 ± 0.29 pg/mL; IL2 concentration [2]: 31.86 ± 1.25 pg/mL; IL4 concentration [2]: 6.42 ± 1.24 pg/mL; IL5 concentration [2]: 25.88 ± 1.37 pg/mL; IL6 concentration [2]: 568.73 ± 24.74 pg/mL; IL7 concentration [2]: 2.09 ± 0.14 pg/mL; IL8 concentration [2]: 3023.88 ± 193.36 pg/mL; IL9 concentration [2]: 3.28 ± 0.35 pg/mL; IL10 concentration [2]: 0.84 ± 0.06 pg/mL; IL12p70 concentration [2]: 1.87 ± 0.16 pg/mL; IL13 concentration [2]: 2.52 ± 0.3 pg/mL; IL15 concentration [2]: 2.57 ± 0.54 pg/mL; IL17A concentration [2]: 4.43 ± 0.26 pg/mL; IL18 concentration [2]: 159.36 ± 4.73 pg/mL; IL21 concentration [2]: 2.47 ± 0.28 pg/mL; IL22 concentration [2]: 7.74 ± 0.78 pg/mL; IL23 concentration [2]: 7.41 ± 0.5 pg/mL; IL27 concentration [2]: 8.04 ± 1.65 pg/mL; IL31 concentration [2]: 3.93 ± 0.4 pg/mL; IP-10/CXCL10 concentration [2]: 4071.78 ± 411.22 pg/mL; LIF concentration [2]: 71.92 ± 2.82 pg/mL; MCP1 concentration [2]: 17302.89 ± 2102.89 pg/mL; MIP1 alpha concentration [2]: 83.1 ± 2.77 pg/mL; MIP1 beta concentration [2]: 318.83 ± 8.71 pg/mL; PDGF-BB concentration [2]: 5.28 ± 0.15 pg/mL; PIGF-1 concentration [2]: 54.61 ± 2.69 pg/mL; RANTES concentration [2]: 183.18 ± 13.92 pg/mL; SCF concentration [2]: 4.2 ± 0.17 pg/mL; SDF-1 alpha concentration [2]: 3481.04 ± 134.24 pg/mL; TNF alpha concentration [2]: 11233.91 ± 945.2 pg/mL; TNF beta concentration [2]: 4.42 ± 0.45 pg/mL; VEGF-A concentration [2]: 1232.36 ± 49.33 pg/mL; VEGF-D concentration [2]: 9.12 ± 0.78 pg/mL; bNGF concentration [2]: 6.52 ± 0.69 pg/mL; BDNF concentration (no stimulation, drug 200 nM): 5.35 ± 0.34 pg/mL; EGF concentration (no stimulation, drug 200 nM): 1.06 ± 0.14 pg/mL; Eotaxin concentration (no stimulation, drug 200 nM): 2.22 ± 0.09 pg/mL; FGF-2 concentration (no stimulation, drug 200 nM): 8.5 ± 0.95 pg/mL; GM-CSF concentration (no stimulation, drug 200 nM): 8.69 ± 1.22 pg/mL; GRO alpha concentration (no stimulation, drug 200 nM): 228.97 ± 14.45 pg/mL; HGF concentration (no stimulation, drug 200 nM): 4.44 ± 0.32 pg/mL; IFN alpha concentration (no stimulation, drug 200 nM): 0.23 ± 0.02 pg/mL; IFN gamma concentration (no stimulation, drug 200 nM): 3.39 ± 0.69 pg/mL; IL1RA concentration (no stimulation, drug 200 nM): 502.58 ± 57.22 pg/mL; IL1 alpha concentration (no stimulation, drug 200 nM): 0.29 ± 0.03 pg/mL; IL1 beta concentration (no stimulation, drug 200 nM): 0.98 ± 0.14 pg/mL; IL2 concentration (no stimulation, drug 200 nM): 3.32 ± 0.6 pg/mL; IL4 concentration (no stimulation, drug 200 nM): 4.61 ± 0.7 pg/mL; IL5 concentration (no stimulation, drug 200 nM): 2.84 ± 0.38 pg/mL; IL6 concentration (no stimulation, drug 200 nM): 26.86 ± 2.62 pg/mL; IL7 concentration (no stimulation, drug 200 nM): 3.03 ± 0.2 pg/mL; IL8 concentration (no stimulation, drug 200 nM): 261.92 ± 12.12 pg/mL; IL9 concentration (no stimulation, drug 200 nM): 3.91 ± 0.48 pg/mL; IL10 concentration (no stimulation, drug 200 nM): 0.32 ± 0.07 pg/mL; IL12p70 concentration (no stimulation, drug 200 nM): 1.55 ± 0.29 pg/mL; IL13 concentration (no stimulation, drug 200 nM): 1.14 ± 0.13 pg/mL; IL15 concentration (no stimulation, drug 200 nM): 2.22 ± 0.42 pg/mL; IL17A concentration (no stimulation, drug 200 nM): 1.2 ± 0.29 pg/mL; IL18 concentration (no stimulation, drug 200 nM): 6.04 ± 0.5 pg/mL; IL21 concentration (no stimulation, drug 200 nM): 2.43 ± 0.31 pg/mL; IL22 concentration (no stimulation, drug 200 nM): 8.13 ± 0.77 pg/mL; IL23 concentration (no stimulation, drug 200 nM): 5.8 ± 1.11 pg/mL; IL27 concentration (no stimulation, drug 200 nM): 7.57 ± 2.22 pg/mL; IL31 concentration (no stimulation, drug 200 nM): 3.01 ± 0.44 pg/mL; IP-10/CXCL10 concentration (no stimulation, drug 200 nM): 19.75 ± 0.42 pg/mL; LIF concentration (no stimulation, drug 200 nM): 23.25 ± 0.99 pg/mL; MCP1 concentration (no stimulation, drug 200 nM): 1125.31 ± 55.12 pg/mL; MIP1 alpha concentration (no stimulation, drug 200 nM): 2.63 ± 0.35 pg/mL; MIP1 beta concentration (no stimulation, drug 200 nM): 113.94 ± 3.76 pg/mL; PDGF-BB concentration (no stimulation, drug 200 nM): 2.15 ± 0.13 pg/mL; PIGF-1 concentration (no stimulation, drug 200 nM): 20.17 ± 1.26 pg/mL; RANTES concentration (no stimulation, drug 200 nM): 8.42 ± 0.51 pg/mL; SCF concentration (no stimulation, drug 200 nM): 1.93 ± 0.13 pg/mL; SDF-1 alpha concentration (no stimulation, drug 200 nM): 1003.25 ± 40.97 pg/mL; TNF alpha concentration (no stimulation, drug 200 nM): 2.4 ± 0.71 pg/mL; TNF beta concentration (no stimulation, drug 200 nM): 4.7 ± 0.28 pg/mL; VEGF-A concentration (no stimulation, drug 200 nM): 554.18 ± 29.76 pg/mL; VEGF-D concentration (no stimulation, drug 200 nM): 3.19 ± 0.57 pg/mL; bNGF concentration (no stimulation, drug 200 nM): 3.84 ± 0.71 pg/mL

Source: patent publication US12498382B2, “Biomarkers for vitiligo” (INCYTE CORPORATION, priority 2019, dated 2025)
